Holding throughout (format): functional
In experiment [1] the test system is KB. Nature of the experiment: Cytotoxicity against human KB cells assessed as growth inhibition at 10 ug/ml after 24 hrs by MTT assay. To be noted: read-out: GI. In general terms: Tetrazolium dyes change colour on reduction, which living cells bring about.
Experiment [2] relates to PC-3. The experiment can be described thus: Cytotoxicity against human PC3 cells assessed as growth inhibition at 0.1 ug/ml after 24 hrs by MTT assay. To be noted: for inhibition of growth at 0.1 µg/mL: PC-3, 24 h, read-out: GI.
The test system of experiment [3] is NCI-H460. The experiment can be described thus: Cytotoxicity against human NCI-H460 cells assessed as growth inhibition at 0.1 ug/ml after 24 hrs by MTT assay. Particulars: NCI-H460, 24 h, read-out: GI.
A short description of experiment [4]: Cytotoxicity against human HO8910 cells assessed as growth inhibition at 10 ug/ml after 24 hrs by MTT assay. To be noted: HO-8910, 24 h, read-out: GI.
Experiment [5] concerns KB. The experiment can be described thus: Cytotoxicity against human KB cells assessed as growth inhibition at 0.1 ug/ml after 24 hrs by MTT assay. To be noted: read-out: GI.
Experiment [6] has as its system Bel-7402. Nature of the experiment: Cytotoxicity against human Bel7402 cells assessed as growth inhibition at 100 ug/ml after 24 hrs by MTT assay. To be noted: Bel-7402, 24 h, read-out: GI.
A short description of experiment [7]: Cytotoxicity against human HO8910 cells assessed as growth inhibition at 0.1 ug/ml after 24 hrs by MTT assay. To be noted: HO-8910, 24 h, read-out: GI.
The subject of experiment [8] is PC-3. The experiment can be described thus: Cytotoxicity against human PC3 cells assessed as growth inhibition at 1 ug/ml after 24 hrs by MTT assay. To be noted: PC-3, 24 h, read-out: GI.
For experiment [9], the system named is KB. Nature of the experiment: Cytotoxicity against human KB cells assessed as growth inhibition at 1 ug/ml after 24 hrs by MTT assay. Particulars: read-out: GI.
Experiment [10] relates to NCI-H460. The experiment can be described thus: Cytotoxicity against human NCI-H460 cells assessed as growth inhibition at 10 ug/ml after 24 hrs by MTT assay. Particulars: NCI-H460, 24 h, read-out: GI.
The test system of experiment [11] is NCI-H460. The experiment can be described thus: Cytotoxicity against human NCI-H460 cells assessed as growth inhibition at 1 ug/ml after 24 hrs by MTT assay. Particulars: NCI-H460, 24 h, read-out: GI.
The test system of experiment [12] is PC-3. Nature of the experiment: Cytotoxicity against human PC3 cells assessed as growth inhibition at 100 ug/ml after 24 hrs by MTT assay. Particulars: PC-3, 24 h, read-out: GI.
Experiment [13] relates to Bel-7402. The experiment can be described thus: Cytotoxicity against human Bel7402 cells assessed as growth inhibition at 1 ug/ml after 24 hrs by MTT assay. To be noted: Bel-7402, 24 h, read-out: GI.
Experiment [14] concerns Bel-7402. The experiment can be described thus: Cytotoxicity against human Bel7402 cells assessed as growth inhibition at 10 ug/ml after 24 hrs by MTT assay. To be noted: Bel-7402, 24 h, read-out: GI.
Experiment [15] has as its system PC-3. Nature of the experiment: Cytotoxicity against human PC3 cells assessed as growth inhibition at 10 ug/ml after 24 hrs by MTT assay. To be noted: PC-3, 24 h, read-out: GI.
Experiment [16] concerns KB. Nature of the experiment: Cytotoxicity against human KB cells assessed as growth inhibition at 100 ug/ml after 24 hrs by MTT assay. To be noted: read-out: GI.
Experiment [17] can be described thus: Cytotoxicity against human HO8910 cells assessed as growth inhibition at 100 ug/ml after 24 hrs by MTT assay. Particulars: HO-8910, 24 h, read-out: GI.
Experiment [18] is described as follows: Cytotoxicity against human HO8910 cells assessed as growth inhibition at 1 ug/ml after 24 hrs by MTT assay. To be noted: HO-8910, 24 h, read-out: GI.
The test system of experiment [19] is NCI-H460. The experiment can be described thus: Cytotoxicity against human NCI-H460 cells assessed as growth inhibition at 100 ug/ml after 24 hrs by MTT assay. To be noted: NCI-H460, 24 h, read-out: GI.
Experiment [20] has as its system Bel-7402. The experiment can be described thus: Cytotoxicity against human Bel7402 cells assessed as growth inhibition at 0.1 ug/ml after 24 hrs by MTT assay. To be noted: Bel-7402, 24 h, read-out: GI.

Activity calls are given as the source filed them. No cut-off for these calls is given here.

For `O=C(CCCCC1CCSS1)Nc1ccc(OC(F)(F)F)cc1` (configuration not stated), the inhibition of growth at 10 µg/mL in experiment [1] was determined as 8.49%; in experiment [4], 8.57%; in experiment [10], 20.3%; in experiment [14], 1.24%; in experiment [15] it was 38.2%. Besides, the inhibition of growth at 0.1 µg/mL turned out to be 6.69% in experiment [2], 7.05% in experiment [3], 1.97% in experiment [5] and 5.53% in experiment [7]. The inhibition of growth at 100 µg/mL in experiment [6] stood at 78.4%; in experiment [12] it was 88.5%; in experiment [16], 90.1%; in experiment [17], 84.5%; in [19], 83%. Besides, the inhibition of growth at 1 µg/mL in experiment [8] was determined as 10.8%; in experiment [9], 1.54%; in experiment [11], 12.2%; in experiment [13], 0.29%; in experiment [18], 10%.
Turning to `O=C(CCCCC(S)CCS)Nc1ccc(Cl)cn1` (configuration not stated), the inhibition of growth at 10 µg/mL in experiment [1] was determined as 21.6%; in experiment [4] it was 21.9%; in experiment [10], 27.4%; in experiment [14], 17.8%; in experiment [15], 10.8%. Besides, the “growth inhibition (GI)” value in experiment [2] was “inactive”. Moreover, the inhibition of growth at 100 µg/mL in experiment [6] worked out at 50.7%; in experiment [12], 32.4%; in [16], 76.5%; in [17], 71.2%; in [19] it was 55.8%. In [7], the inhibition of growth at 0.1 µg/mL is 2.65%. Also, the inhibition of growth at 1 µg/mL in experiment [8] came out at 0.89%; in experiment [13] it was 2.34%.
Regarding `O=C(CCCCC1CCSS1)Nc1cccc(C(F)(F)F)c1` (configuration not stated), the inhibition of growth at 10 µg/mL amounted to 10.9% in experiment [1]; 5.99% in [4]; 6.77% in experiment [10]; 4.43% in experiment [14]; 38.5% in [15]. In addition, the inhibition of growth at 0.1 µg/mL amounted to 6.27% in experiment [2], 0.33% in [5] and 5% in experiment [7]. For the same molecule, the inhibition of growth at 100 µg/mL in experiment [6] is 61.9%; in [12] it was 88.7%; in experiment [16], 80%; in experiment [17], 74.8%; in [19] it was 68.8%. Besides, the inhibition of growth at 1 µg/mL in [8] was determined as 8.44%; in [9], 9.5%; in experiment [11], 4.39%; in experiment [18], 4.76%.
For `O=C(CCCCC(S)CCS)Nc1ccc([N+](=O)[O-])c(C(F)(F)F)c1` (configuration not stated), the inhibition of growth at 10 µg/mL came to 4.04% in [1], 0.97% in experiment [10] and 45.5% in [15]. Also, the inhibition of growth at 0.1 µg/mL turned out to be 8.06% in [2], 3.2% in experiment [3], 1.95% in [7] and 6.54% in experiment [20]. Further, the inhibition of growth at 100 µg/mL was 91.7% in experiment [6]; 79.9% in experiment [12]; 95.5% in [16]; 92.7% in [17]; 95.8% in experiment [19]. Moreover, the inhibition of growth at 1 µg/mL in experiment [8] came to 1.08%; in [9], 10.2%; in experiment [11], 6.29%; in [13], 0.68%; in [18], 1.17%.
In the case of `O=C(CCCCC(S)CCS)Nc1ccc(OC(F)(F)F)cc1` (configuration not stated), the inhibition of growth at 10 µg/mL in [1] stood at 15%; in experiment [4], 6.11%; in experiment [10] it was 29.2%; in [14] it was 14.2%; in experiment [15], 42.5%. The inhibition of growth at 0.1 µg/mL in experiment [2] stood at 14.9%; in experiment [3], 17.2%; in experiment [5] it was 7.27%. Moreover, the inhibition of growth at 100 µg/mL in [6] was determined as 49.7%; in experiment [12], 75.5%; in [16] it was 73.3%; in [17] it was 66.8%; in [19], 65.1%. The inhibition of growth at 1 µg/mL amounted to 12.6% in experiment [8]; 6% in [9]; 19.1% in experiment [11]; 7.32% in [13]; 0.56% in experiment [18].
In the case of `O=C(CCCCC1CCSS1)Nc1ccc([N+](=O)[O-])cc1` (configuration not stated), the inhibition of growth at 10 µg/mL in experiment [1] stood at 14.4%; in [4] it was 0.61%; in experiment [10], 22.7%; in experiment [14], 4.83%; in [15], 6.67%. Also, the results for the inhibition of growth at 0.1 µg/mL in [2], in [3] and in [5] were 13.9%, 11.9% and 0.22%, respectively. For the same molecule, the inhibition of growth at 100 µg/mL in [6] is 52.6%; in experiment [12], 79.6%; in experiment [16] it was 71.3%; in [17], 64.5%; in experiment [19], 56.7%. Besides, the inhibition of growth at 1 µg/mL in [8] was 19.9%; in experiment [11], 7.45%; in experiment [18] it was 0.33%.
Regarding `O=C(CCCCC1CCSS1)Nc1ccc(F)cc1` (configuration not stated), the inhibition of growth at 10 µg/mL stood at 4.44% in experiment [1]; 3.89% in experiment [4]; 18.8% in experiment [10]; 1.92% in [14]; 13.8% in experiment [15]. Also, the inhibition of growth at 0.1 µg/mL in [2] is 15.6%; in experiment [3], 15.6%; in experiment [5], 11.3%; in experiment [7] it was 6.59%. For the same molecule, the inhibition of growth at 100 µg/mL came out at 74.5% in experiment [6]; 80.8% in experiment [12]; 85.4% in experiment [16]; 78.1% in [17]; 64.5% in experiment [19]. Besides, the inhibition of growth at 1 µg/mL in [8] is 14.5%; in experiment [9], 4.05%; in experiment [11], 11.4%; in [13], 1.79%; in experiment [18], 5.82%.
Regarding `O=C(CCCCC1CCSS1)Nc1ccc(Cl)cc1` (configuration not stated), the inhibition of growth at 10 µg/mL in experiment [1] worked out at 21.7%; in [4], 0.75%; in [10], 18.3%; in experiment [14], 7.01%; in experiment [15] it was 14.7%. Also, the inhibition of growth at 0.1 µg/mL is 18.9% in [2], 13% in experiment [3], 16.4% in experiment [5] and 3.37% in experiment [20]. Moreover, the inhibition of growth at 100 µg/mL in [6] was found to be 76.4%; in [12], 41.2%; in experiment [16], 83.1%; in [17], 74.8%; in experiment [19], 68.7%. For the same molecule, the inhibition of growth at 1 µg/mL in experiment [8] stood at 13.7%; in [9], 18.6%; in experiment [11] it was 10.9%; in [13], 0.64%.
For the molecule `Cc1cccc(NC(=O)CCCCC2CCSS2)c1` (configuration not stated), the inhibition of growth at 10 µg/mL in experiment [1] is 4.13%; in experiment [10], 4.15%; in [14], 9.01%; in experiment [15], 9.57%. For the same molecule, the inhibition of growth at 0.1 µg/mL in experiment [2] is 2.13%; in [3] it was 7.97%; in experiment [5], 4.29%; in [7], 3.68%; in experiment [20] it was 9.88%. The inhibition of growth at 100 µg/mL in experiment [6] was 49.9%; in [12], 75.1%; in experiment [16], 68%; in experiment [17], 62.7%; in experiment [19], 52.9%. Moreover, the inhibition of growth at 1 µg/mL in experiment [8] is 9.98%; in experiment [9] it was 5.2%; in [11], 7.82%; in experiment [13], 10.3%; in experiment [18] it was 4.54%.

Values taken from ChEMBL document CHEMBL1157124, “Synthesis and anticancer evaluation of alpha-lipoic acid derivatives” (Bioorg Med Chem Lett, 2010).
